Literature values, collected in patent publication US20200246404A1, “FORMULATIONS” (Molecular Infusions, LLC, priority 2017, published 2020).

What was measured:
human PBMCs = human PBMCs in vitro
encephalitogenic T cells = encephalitogenic T cells after in vivo application to rats

SMILES | release of IFN-γ and IL-17 (human PBMCs) | release of IFN-γ and IL-17 (encephalitogenic T cells) | duration of action for psychoactive effects (in vivo) [h] | administered dose that reaches the systemic circulation (oral) [%]
CCOC(=O)C(C)=O [Ethyl pyruvate] | efficiently suppressed | efficiently suppressed | – | –
CCCCCc1cc(O)c2c(c1)OC(C)(C)[C@@H]1CCC(C)=C[C@@H]21 [dronabinol, Synthetic Δ9-tetrahydrocannabinol] | – | – | 4 to 6 | 10 to 20
